Assay results published in US20100278853A1, “C[…] V3 LOOP PEPTIDES AS NOVEL IMMUNOGENS AND RECEPTOR ANTAGONISTS” (YEDA RESEARCH AND DEVELOPMENT CO., LTD., priority 2003, published 2010).

What was measured:
447Fv = experiment: Fluorescence quenching of 447Fv upon titration with the peptide; parameters: species or system human; conditions: read-out: dissociation constant / binding affinity for 447Fv
Protocol: The R5A-M1 peptide binds 447Fv with a dissociation constant of 10 nM as determined by fluorescence quenching of 447F upon titration with the peptide, so is within one order of magnitude of the binding affinity of the V3 peptide (˜1 nM).

447 = experiment: Binding affinity of V3 peptides to mAb 447 (method not described); parameters: species or system human; conditions: relative to affinity of 447 for V3MN peptide
[1] = test system: R5 and X4 tropic virus strains; conditions: against both R5 and X4 tropic virus strains; cited from earlier work

Work on CRKSIHC—GPGRCFYTTGC [R5A-M1] yielded a Kd (447Fv) of 10 nM.
In the case of “TRKSIRIQRGPGRAFVTIGK [V3IIIB, 310-329 gp120IIIB V3 loop peptide expressed in E. coli]”, the “association constant with 447 compared with the corresponding V3MN peptide” value 447 is reported as “one order of magnitude lower”.
For “α-defensin: low molecular weight granulocyte protein, pdb code 1dfn”, the anti-HIV activity [1] is given as “anti-HIV activity”.
